Measured values published in publication PMC9908026 (Science Advances, 2023).

Target: T1, EcGlyRS ((αβ)2 orphan GlyRS, full-length; EcGlyRS_FL) (Escherichia coli, UniProt P00960)
T1 construct: gene glyQ; full-length α and β subunits co-expressed in E. coli BL21(DE3); C-terminal His6 tag on β, no cleavage told; (αβ)2 heterotetramer; with Glycine--tRNA ligase beta subunit
T1 sequence (P00960 1-303): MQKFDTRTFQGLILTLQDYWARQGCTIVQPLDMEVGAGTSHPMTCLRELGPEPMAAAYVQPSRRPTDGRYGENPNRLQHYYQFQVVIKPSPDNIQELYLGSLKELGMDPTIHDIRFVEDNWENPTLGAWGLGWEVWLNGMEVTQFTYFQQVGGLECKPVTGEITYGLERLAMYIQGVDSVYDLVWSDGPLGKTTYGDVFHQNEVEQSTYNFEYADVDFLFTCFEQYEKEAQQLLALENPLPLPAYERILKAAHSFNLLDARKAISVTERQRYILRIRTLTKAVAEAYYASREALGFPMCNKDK
T1 sequence (P00961 2-689 partner): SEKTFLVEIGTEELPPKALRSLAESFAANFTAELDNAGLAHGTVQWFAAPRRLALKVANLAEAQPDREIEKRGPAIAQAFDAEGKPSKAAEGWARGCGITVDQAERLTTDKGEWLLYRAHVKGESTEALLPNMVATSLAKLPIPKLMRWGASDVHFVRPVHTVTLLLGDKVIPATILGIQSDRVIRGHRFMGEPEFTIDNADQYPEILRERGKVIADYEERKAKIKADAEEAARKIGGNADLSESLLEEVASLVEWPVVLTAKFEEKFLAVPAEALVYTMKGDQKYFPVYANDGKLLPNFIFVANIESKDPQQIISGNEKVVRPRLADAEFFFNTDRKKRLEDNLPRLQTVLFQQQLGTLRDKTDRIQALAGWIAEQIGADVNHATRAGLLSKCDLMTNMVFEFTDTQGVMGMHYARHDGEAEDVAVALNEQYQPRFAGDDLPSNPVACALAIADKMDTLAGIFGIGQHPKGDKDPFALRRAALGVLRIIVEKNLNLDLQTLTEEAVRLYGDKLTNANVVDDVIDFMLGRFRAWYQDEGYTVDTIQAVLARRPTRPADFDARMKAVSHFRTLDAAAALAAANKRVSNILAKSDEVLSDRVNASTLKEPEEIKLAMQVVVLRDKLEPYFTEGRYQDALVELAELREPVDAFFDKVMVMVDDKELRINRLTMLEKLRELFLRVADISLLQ
Test: ATP consumption assay (Kinase-Glo luminescence)
Assay type: biochemical
Conditions: 4 μM ATP, 500 μM glycine, tRNA-Gly(GCC) 0.25 mg/ml, 40 mM MgCl2, pH 7.5, room temperature; 50 nM enzyme

Nc1ncnc2c1ncn2[C@@H]1O[C@H](COP(=O)(O)OP(=O)(O)OP(=O)(O)O)[C@@H](O)[C@H]1O [ATP]
ATP consumption assay (Kinase-Glo luminescence): An ATP consumption assay was used to evaluate the aminoacylation activity of EcGlyRS on tRNA^Gly
